Test system: 388556-164-R-J1-PDC complex spheroid viability
Experiment: Anticancer human tumor 388556-164-R-J1-PDC patient-derived colon adenocarcinoma cell line growth inhibition [RAS]
Details: for IC50: curve of first compound; for viability, T/C: stronger effect = lower value; active = viability on the fitted dose curve at most 10% of control; inactive = the rest
Source text: RAS pathway inhibitors in Combinations in Complex Spheroids
A high-throughput screen of multi-cell type tumor spheroids was designed to identify active combinations of RAS pathway inhibitors and targeted small molecules. Complex spheroids include a stromal component modeled by human endothelial cells (HUVEC) and fibroblasts modeled by human mesenchymal stem cells (MSCs). The concentration ranges selected for each drug and investigational agent were based upon clinically achievable concentrations if the clinical Cmax of the agent was known.
Compounds. The drugs and investigational agents: abemaciclib (NSC768073), cobimetinib (NSC768068), divarasib (GDC6063, NSC841802), docetaxel (NSC628503), GDC-1971 (RLY-1971, NSC841576), gemcitabine (NSC613327), inavolisib (NSC800729), ipatasertib (NSC767898), KB-0742 (NSC834161), MRTX-1133 (NSC836407), osimertinib (NSC779217), RMC-4630 (NSC839698), RMC-6236 (NSC851965), RMC-6291 (NSC852671), Ro-3306 (NSC812927), sapanisertib (NSC764658), SN-38 (NSC673596), staurosporine (NSC755774), SY5609 (NSC837396), and tovorafenib (DAY101, NSC766906), were obtained from the National Cancer Institute (NCI) Developmental Therapeutics Program Chemical Repository. The FDA-approved anticancer drug set is available from the NCI Developmental Therapeutics Program. […] The stock solutions were prepared in dimethyl sulfoxide (DMSO, Sigma-Aldrich, St. Louis, MO, cat. D2650) at 800-fold the tested concentration and stored at -70 degrees C prior to their use. All drugs and investigational agents were tested over a range starting from a high concentration at or near the clinical Cmax and decreasing in half-log increments. If the clinical Cmax for an agent had not been determined, the highest concentration tested was 10 microM.
Cell Culture. All cells were maintained in an incubator at 37 degrees C and 5% CO2 with 95% humidity. The PDC lines were cultured according to standard operating procedures established by the NCI PDMR. All PDCs were thawed and cultured in Matrigel-coated flasks prepared with a working solution of 1X Ham's F-12 nutrient mix, without supplementation (Invitrogen, Waltham, MA, cat. 11765054), 100 U/mL penicillin-streptomycin (Invitrogen, cat. 15140122), and 2.5% Matrigel (Corning Inc., Corning, NY, cat. 354248) for the first three passages. The 362531-283-R-J2-PDC and 782815-120-R-J1-PDC lines were cultured in 6C/Colon 1B media, which includes advanced DMEM/F-12 (Thermo Fisher Scientific, cat. 12634028), 10 mM HEPES (Thermo Fisher Scientific, cat. 15630080), 1X GlutaMAX supplement (Thermo Fisher Scientific, cat. 35050061), 0.1 mg/mL primocin (InvivoGen, San Diego, CA, cat. ant-pm-2), 10% defined fetal bovine serum, heat inactivated (HyClone Laboratories Inc., Logan, UT, cat. SH30070.03HI), 50% L-WRN conditioned media (ATCC, cat. CRL-3276), 1.25 mM N-Acetyl-L-cysteine (Sigma-Aldrich, cat. A9165), 10 mM nicotinamide (Sigma-Aldrich, cat. N0636), 1X B-27 supplement (Thermo Fisher Scientific, cat. 17504044), 1X N-2 supplement (Thermo Fisher Scientific, cat. 17502048), 50 ng/mL human EGF (Thermo Fisher Scientific, cat. PHG0311), and 10 microM Y-27632 dihydrochloride (Tocris Bioscience, cat. 1254). The K12877-001-R-J1-PDC line was cultured in 6I media, which includes all 6C/Colon 1B media plus 10 ng/mL human FGF-10 (PeproTech, cat. 100-26), 1 ng/mL human FGF-2 (PeproTech, cat. 100-18B), 1 µM prostaglandin E2 (Tocris Bioscience, cat. 2296), […] hydrocortisone (Sigma-Aldrich, cat. H4001), and […] bovine insulin (Sigma-Aldrich, cat. I6634). The K86415-001-R-J1-PDC line was cultured in 6D media, which includes all 6C/Colon 1B media components minus the L-WRN conditioned media. The 485176-168-R4-J1-PDC was cultured in PANC media, which includes all 6C/Colon 1B media plus 100 ng/mL human FGF-10 (PeproTech, cat. 100-26), 500 nM SB-431542 (Selleckchem, cat. S1067), and 10 nM gastrin (Tocris Bioscience, cat. 3006). […]

[1] = second compound 0.000949 µM, first compound 0.0316 µM
[2] = second compound 0.000949 µM, first compound 0.1 µM
[3] = second compound 0.000949 µM, first compound 0.316 µM
[4] = second compound 0.000949 µM, first compound 1 µM
[5] = second compound 0.003 µM, first compound 0.0316 µM
[6] = second compound 0.003 µM, first compound 0.1 µM
[7] = second compound 0.003 µM, first compound 0.316 µM
[8] = second compound 0.003 µM, first compound 1 µM
[9] = second compound 0.00949 µM, first compound 0.0316 µM
[10] = second compound 0.00949 µM, first compound 0.1 µM
[11] = second compound 0.00949 µM, first compound 0.316 µM
[12] = second compound 0.00949 µM, first compound 1 µM
[13] = second compound 0.03 µM, first compound 0.0316 µM
[14] = second compound 0.03 µM, first compound 0.1 µM
[15] = second compound 0.03 µM, first compound 0.316 µM
[16] = second compound 0.03 µM, first compound 1 µM
[17] = second compound 0.0949 µM, first compound 0.0316 µM
[18] = second compound 0.0949 µM, first compound 0.1 µM
[19] = second compound 0.0949 µM, first compound 0.316 µM
[20] = second compound 0.0949 µM, first compound 1 µM
[21] = second compound 0.3 µM, first compound 0.0316 µM
[22] = second compound 0.3 µM, first compound 0.1 µM
[23] = second compound 0.3 µM, first compound 0.316 µM
[24] = second compound 0.3 µM, first compound 1 µM
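Also: spheroids exposed to compound for 7 days before readout.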
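For viability, T/C in this document: 100% = DMSO vehicle control luminescence.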

O=C(c1ccc(F)c(F)c1Nc1ccc(I)cc1F)N1CC(O)([C@@H]2CCCCN2)C1 + CCn1c(-c2cccnc2C(C)OC)c2c3cc(ccc31)N1CCOC(CC(NC(=O)C(C(C)C)N(C)C(=O)C3(F)CCN(C(=O)C#CC(C)(C)N(C)C)CC3)C(=O)N3CCCC(N3)C(=O)OCC(C)(C)C2)C1
173 nM: IC50 (second compound 0.003 µM)
172 nM: IC50 (second compound 0.3 µM)
175 nM: IC50 (second compound 0.0949 µM)
inactive: viability, T/C (second compound 0.000949 µM, first compound 0.00316 µM) 94% | viability, T/C (second compound 0.000949 µM, first compound 0.01 µM) 91.1% | viability, T/C [1] 81.7% | viability, T/C [2] 70.6% | viability, T/C [3] 43% | viability, T/C [4] 25.2% | viability, T/C (second compound 0.003 µM, first compound 0.00316 µM) 104% | viability, T/C (second compound 0.003 µM, first compound 0.01 µM) 97.3% | viability, T/C [5] 76.4% | viability, T/C [6] 60.8% | viability, T/C [7] 39.5% | viability, T/C [8] 22.5% | viability, T/C (second compound 0.00949 µM, first compound 0.00316 µM) 100% | viability, T/C (second compound 0.00949 µM, first compound 0.01 µM) 96.8% | viability, T/C [9] 77.7% | viability, T/C [10] 64.8% | viability, T/C [11] 47.6% | viability, T/C [12] 22.6% | viability, T/C (second compound 0.03 µM, first compound 0.00316 µM) 115% | viability, T/C (second compound 0.03 µM, first compound 0.01 µM) 98.1% | viability, T/C [13] 89.9% | viability, T/C [14] 62.5% | viability, T/C [15] 37.6% | viability, T/C [16] 22.3% | viability, T/C (second compound 0.0949 µM, first compound 0.00316 µM) 102% | viability, T/C (second compound 0.0949 µM, first compound 0.01 µM) 97.5% | viability, T/C [17] 84.8% | viability, T/C [18] 57.8% | viability, T/C [19] 41.5% | viability, T/C [20] 23.3% | viability, T/C (second compound 0.3 µM, first compound 0.00316 µM) 81.5% | viability, T/C (second compound 0.3 µM, first compound 0.01 µM) 81.8% | viability, T/C [21] 72.8% | viability, T/C [22] 59.1% | viability, T/C [23] 39.7% | viability, T/C [24] 20.2%
247 nM: IC50 (second compound 0.00949 µM)
241 nM: IC50 (second compound 0.000949 µM)
185 nM: IC50 (second compound 0.03 µM)

CC(=O)OC12COC1CC(O)C1(C)C(=O)C(O)C3=C(C)C(OC(=O)C(O)C(NC(=O)OC(C)(C)C)c4ccccc4)CC(O)(C(OC(=O)c4ccccc4)C21)C3(C)C (centres undefined) + CCn1c(-c2cccnc2C(C)OC)c2c3cc(ccc31)N1CCOC(CC(NC(=O)C(C(C)C)N(C)C(=O)C3(F)CCN(C(=O)C#CC(C)(C)N(C)C)CC3)C(=O)N3CCCC(N3)C(=O)OCC(C)(C)C2)C1
inactive: viability, T/C [1] 86% | viability, T/C [2] 83.4% | viability, T/C [3] 70.5% | viability, T/C [4] 73.7% | viability, T/C (second compound 0.000949 µM, first compound 3.16 µM) 80.7% | viability, T/C (second compound 0.000949 µM, first compound 10 µM) 74.7% | viability, T/C [5] 92.2% | viability, T/C [6] 78.8% | viability, T/C [7] 79% | viability, T/C [8] 76% | viability, T/C (second compound 0.003 µM, first compound 3.16 µM) 75.1% | viability, T/C (second compound 0.003 µM, first compound 10 µM) 74.4% | viability, T/C [9] 86% | viability, T/C [10] 83.4% | viability, T/C [11] 76.6% | viability, T/C [12] 75% | viability, T/C (second compound 0.00949 µM, first compound 3.16 µM) 79.4% | viability, T/C (second compound 0.00949 µM, first compound 10 µM) 71% | viability, T/C [13] 95.5% | viability, T/C [14] 81.7% | viability, T/C [15] 70.7% | viability, T/C [16] 71.7% | viability, T/C (second compound 0.03 µM, first compound 3.16 µM) 79.1% | viability, T/C (second compound 0.03 µM, first compound 10 µM) 74.2% | viability, T/C [17] 80.7% | viability, T/C [18] 79.2% | viability, T/C [19] 81.8% | viability, T/C [20] 76.3% | viability, T/C (second compound 0.0949 µM, first compound 3.16 µM) 78% | viability, T/C (second compound 0.0949 µM, first compound 10 µM) 69.6% | viability, T/C [21] 79.7% | viability, T/C [22] 70.3% | viability, T/C [23] 71.3% | viability, T/C [24] 73.8% | viability, T/C (second compound 0.3 µM, first compound 3.16 µM) 71.4% | viability, T/C (second compound 0.3 µM, first compound 10 µM) 69%
> 10000 nM: IC50 (second compound 0.000949 µM) | IC50 (second compound 0.003 µM) | IC50 (second compound 0.00949 µM) | IC50 (second compound 0.03 µM) | IC50 (second compound 0.0949 µM) | IC50 (second compound 0.3 µM)

From PubChem BioAssay AID2060907 (Molecular Pharmacology Branch, DTP, NCI, 2025)
